Test results taken from patent publication US9328137B2, “Hydrogel-forming material” (NISSAN CHEMICAL INDUSTRIES, LTD., priority 2011, dated 2016).
Residues, ends and D or L forms follow the SMILES beside them. *: point of attachment. Palmitoyl = CCCCCCCCCCCCCCCC(=O)*

How the values were obtained:
[1] = Evaluation of hydrogelation ability (overnight cooling at room temperature, inversion of the bottle); type: physicochemical; conditions: same additive amounts as; after stirring at 80° C. in an open system
Text: Next, the solution was allowed to cool at room temperature overnight.

[2] = Evaluation of solubility of N-palmitoyl-Gly-His with each additive (heating and stirring at 80° C., open system, visual inspection); type: physicochemical; conditions: 0.05% or greater acetic acid, sodium acetate or phosphoric acid, 0.1% disodium hydrogen phosphate or trisodium citrate, 0.5% citric, succinic, tartaric, lactic acid or their sodium salts, 1.0% trimellitic acid or trisodium trimellitate
Method: Next, heating and stirring were performed, with a cap of the screw bottle being open (that is, an open system), in a water bath (NWB-180N, manufactured by Nissinrika K. K.) for 60 minutes at a maximum until a transparent dispersion state was confirmed at 80° C. […] Next, heating and stirring were performed, with a cap of the screw bottle being open, in a water bath (NWB-180N, manufactured by Nissinrika K. K.) for 60 minutes at 80° C.
Next, heating and stirring were performed, with a cap of the screw bottle being open, in a water bath (NWB-180N, manufactured by Nissinrika K. K.) for 60 minutes at a maximum until a transparent dispersion state was confirmed at 80° C.

hydrogel formation (summary of Examples 1 to 14, in words) [1]: a hydrogel could be obtained
dissolution in water (summary of Examples 1 to 14, in words) [2]: could be easily dissolved in water
SMILES: CCCCCCCCCCCCCCCC(=O)NCC(=O)N[C@@H](Cc1c[nH]cn1)C(=O)O [N-palmitoyl-Gly-His] (Palmitoyl-Gly-His-OH)
